Source: patent US10377753B2, “Substituted 4-azaindoles and their use as GluN2B receptor modulators” (Janssen Pharmaceutica NV, priority 2015, dated 2019)

These molecules were tested against cloned human NR1/NR2B ion channels (Homo sapiens (Human), UniProt Q05586+Q13224) (assay: HNR2BC: effects of test articles on cloned human NR1/NR2B ion channels expressed in mammalian cells (FLIPR calcium flux)). Details: cloned human NR1/NR2B, Table 5.
Type: cell-based
Method in brief: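 In a stable Tet-On-induced cell line expressing human GluN1/GluN2B, Calcium 5-loaded cells were preincubated 5 min with compound, then stimulated 5 min with glutamate at ~EC80 plus 10 μM glycine, in pH 7.4 HEPES buffer. FLIPR calcium fluorescence was normalized to control wells.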

Sequence of cloned human NR1/NR2B ion channels (Q13224 27-1484, other chains not shown): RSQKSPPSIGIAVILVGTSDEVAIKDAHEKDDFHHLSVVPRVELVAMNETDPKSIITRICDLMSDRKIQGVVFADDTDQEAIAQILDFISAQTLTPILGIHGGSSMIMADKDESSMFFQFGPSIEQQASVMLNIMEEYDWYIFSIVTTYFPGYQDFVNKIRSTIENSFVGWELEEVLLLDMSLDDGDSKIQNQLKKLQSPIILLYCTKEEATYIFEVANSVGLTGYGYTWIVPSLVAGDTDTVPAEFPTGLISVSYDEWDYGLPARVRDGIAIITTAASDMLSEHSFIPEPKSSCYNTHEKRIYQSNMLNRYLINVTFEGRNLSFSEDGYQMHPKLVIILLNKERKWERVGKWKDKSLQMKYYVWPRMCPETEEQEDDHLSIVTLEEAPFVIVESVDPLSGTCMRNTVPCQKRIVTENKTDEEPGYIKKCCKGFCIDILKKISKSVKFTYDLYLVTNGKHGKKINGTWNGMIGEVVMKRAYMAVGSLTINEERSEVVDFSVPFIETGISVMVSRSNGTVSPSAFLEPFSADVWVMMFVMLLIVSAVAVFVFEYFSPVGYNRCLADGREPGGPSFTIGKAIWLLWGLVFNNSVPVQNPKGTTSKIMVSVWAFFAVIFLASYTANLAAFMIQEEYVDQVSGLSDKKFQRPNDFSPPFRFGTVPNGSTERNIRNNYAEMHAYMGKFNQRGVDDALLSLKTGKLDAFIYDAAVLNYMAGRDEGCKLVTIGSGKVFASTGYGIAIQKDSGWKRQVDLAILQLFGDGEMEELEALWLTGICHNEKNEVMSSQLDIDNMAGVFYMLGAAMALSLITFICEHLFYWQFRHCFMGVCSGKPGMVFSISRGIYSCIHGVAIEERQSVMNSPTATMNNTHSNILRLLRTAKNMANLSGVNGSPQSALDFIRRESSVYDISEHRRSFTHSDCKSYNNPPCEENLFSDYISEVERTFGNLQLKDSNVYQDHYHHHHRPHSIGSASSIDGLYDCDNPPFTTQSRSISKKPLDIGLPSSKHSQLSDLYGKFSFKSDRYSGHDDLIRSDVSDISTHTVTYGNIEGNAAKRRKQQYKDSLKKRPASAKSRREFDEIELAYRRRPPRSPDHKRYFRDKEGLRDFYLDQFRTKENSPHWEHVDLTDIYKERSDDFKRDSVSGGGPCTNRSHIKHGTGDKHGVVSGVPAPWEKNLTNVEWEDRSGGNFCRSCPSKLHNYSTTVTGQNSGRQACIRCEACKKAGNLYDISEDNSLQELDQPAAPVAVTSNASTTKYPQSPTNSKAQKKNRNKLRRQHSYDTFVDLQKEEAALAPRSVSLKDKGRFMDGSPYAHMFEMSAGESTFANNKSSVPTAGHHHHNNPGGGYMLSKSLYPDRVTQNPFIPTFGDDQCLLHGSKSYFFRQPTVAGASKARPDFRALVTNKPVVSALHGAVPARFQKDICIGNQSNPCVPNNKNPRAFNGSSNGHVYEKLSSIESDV

| SMILES | IC50 | pIC50 |
| --- | --- | --- |
| O=C(Cn1ccc2ncc(-c3ccc(F)c(C(F)(F)F)c3)cc21)NC1CC1 [Example 101, N-Cyclopropyl-2-[6-[4-fluoro-3-(trifluoromethyl)phenyl]pyrrolo[3,2-b]pyridin-1-yl]acetamide] | 200 nM |  |
| O=C(Cn1ccc2ncc(-c3cncc(C(F)(F)F)c3)cc21)N1CCC1 [Example 102, 1-(Azetidin-1-yl)-2-[6-[5-(trifluoromethyl)-3-pyridyl]pyrrolo[3,2-b]pyridin-1-yl]ethanone] | 398 nM |  |
| O=C(Cn1ccc2ncc(-c3ccc(F)c(F)c3)cc21)N1CCC1 [Example 103, 1-(Azetidin-1-yl)-2-[6-(3,4-difluorophenyl)pyrrolo[3,2-b]pyridin-1-yl]ethanone] | 251 nM |  |
| O=C(Cn1ccc2ncc(-c3ccc(F)c(C(F)(F)F)c3)cc21)N1CCC1 [Example 104, 1-(Azetidin-1-yl)-2-[6-[4-fluoro-3-(trifluoromethyl)phenyl]pyrrolo[3,2-b]pyridin-1-yl]ethanone] | 31.6 nM |  |
| O=C(Cn1ccc2ncc(-c3ccc(F)c(C(F)(F)F)c3)cc21)N1CCCC1 [Example 105, 2-[6-[4-Fluoro-3-(trifluoromethyl)phenyl]pyrrolo[3,2-b]pyridin-1-yl]-1-pyrrolidin-1-yl-ethanone] | 39.8 nM |  |
| O=C(Cn1ccc2ncc(-c3ccc(F)c(C(F)(F)F)c3)cc21)N1CC(F)(F)C1 [Example 106, 1-(3,3-Difluoroazetidin-1-yl)-2-[6-[4-fluoro-3-(trifluoromethyl)phenyl]pyrrolo[3,2-b]pyridin-1-yl]ethanone] | 316 nM |  |
| O=C(Cn1ccc2ncc(-c3ccc(F)c(F)c3)cc21)N1CCOCC1 [Example 107, 2-[6-(3,4-Difluorophenyl)pyrrolo[3,2-b]pyridin-1-yl]-1-morpholino-ethanone] | 158 nM |  |
| O=C(Cn1ccc2ncc(-c3ccc(F)c(C(F)(F)F)c3)cc21)N1CCOCC1 [Example 108, 2-[6-[4-Fluoro-3-(trifluoromethyl)phenyl]pyrrolo[3,2-b]pyridin-1-yl]-1-morpholino-ethanone] | 126 nM |  |
| O=C(Cn1ccc2ncc(-c3ccnc(C(F)(F)F)c3)cc21)N1CCC1 [Example 109, 1-(Azetidin-1-yl)-2-[6-[2-(trifluoromethyl)-4-pyridyl]pyrrolo[3,2-b]pyridin-1-yl]ethanone] | 158 nM |  |
| O=C(Cn1ccc2ncc(-c3ccnc(C(F)(F)F)c3)cc21)NC1CC1 [Example 110, N-Cyclopropyl-2-[6-[2-(trifluoromethyl)-4-pyridyl]pyrrolo[3,2-b]pyridin-1-yl]acetamide] | 251 nM |  |
| O=C(Cn1ccc2ncc(-c3cccc(C(F)(F)F)n3)cc21)NC1CC1 [Example 111, N-Cyclopropyl-2-[6-[6-(trifluoromethyl)-2-pyridyl]pyrrolo[3,2-b]pyridin-1-yl]acetamide] | 398 nM |  |
| Cc1ccc(-c2cnc3ccn(CC(=O)N4CCC4)c3c2)cn1 [Example 112, 1-(Azetidin-1-yl)-2-[6-(6-methyl-3-pyridyl)pyrrolo[3,2-b]pyridin-1-yl]ethanone] | 501 nM |  |
| N#Cc1ccc(-c2cnc3ccn(CC(=O)N4CCC4)c3c2)cn1 [Example 113, 5-[1-[2-(Azetidin-1-yl)-2-oxo-ethyl]pyrrolo[3,2-b]pyridin-6-yl]pyridine-2-carbonitrile] | 5010 nM |  |
| Fc1ccc(-c2cnc3ccn(Cc4cncnc4)c3c2)cc1F [Example 114, 6-(3,4-Difluorophenyl)-1-(pyrimidin-5-ylmethyl)pyrrolo[3,2-b]pyridine] | > 10000 nM |  |
| Fc1cnc(Cn2ccc3ncc(-c4ccc(F)c(F)c4)cc32)nc1 [Example 115, 6-(3,4-Difluorophenyl)-1-[(5-fluoropyrimidin-2-yl)methyl]pyrrolo[3,2-b]pyridine] | 316 nM |  |
| O=C(C1CCC1)n1ccc2ncc(-c3ccc(F)c(F)c3)cc21 [Example 116, Cyclobutyl-[6-(3,4-difluorophenyl)pyrrolo[3,2-b]pyridin-1-yl]methanone] | 794 nM |  |
| O=C(Cn1ccc2ncc(-c3cccc(C(F)(F)F)n3)cc21)N1CC(F)(F)C1 [Example 117, 1-(3,3-Difluoroazetidin-1-yl)-2-[6-[6-(trifluoromethyl)-2-pyridyl]pyrrolo[3,2-b]pyridin-1-yl]ethanone] | 5010 nM |  |
| O=C(Cn1ccc2ncc(-c3ccc(F)c(F)c3F)cc21)N1CCC1 [Example 118, 1-(Azetidin-1-yl)-2-[6-(2,3,4-trifluorophenyl)pyrrolo[3,2-b]pyridin-1-yl]ethanone] | 100 nM |  |
| O=C(CC1CC1)n1ccc2ncc(-c3ccc(F)c(F)c3)cc21 [Example 119, 2-Cyclopropyl-1-[6-(3,4-difluorophenyl)pyrrolo[3,2-b]pyridin-1-yl]ethanone] | 50.1 nM |  |
| O=C(Cn1ccc2ncc(-c3ccc(F)c(F)c3F)cc21)N1CCCC1 [Example 120, 1-Pyrrolidin-1-yl-2-[6-(2,3,4-trifluorophenyl)pyrrolo[3,2-b]pyridin-1-yl]ethanone] | 631 nM |  |
| O=C(Cn1ccc2ncc(-c3cc(F)cc(F)c3)cc21)N1CC(F)(F)C1 [Example 121, 1-(3,3-difluoroazetidin-1-yl)-2-[6-(3,5-difluorophenyl)pyrrolo[3,2-b]pyridin-1-yl]ethanone] | 63.1 nM |  |
| O=C(Cn1ccc2ncc(-c3cc(F)cc(F)c3)cc21)N1CCCC1 [Example 122, 2-[6-(3,5-Difluorophenyl)pyrrolo[3,2-b]pyridin-1-yl]-1-pyrrolidin-1-yl-ethanone] | 39.8 nM |  |
| O=C(Cn1ccc2ncc(-c3cc(F)c(F)c(F)c3)cc21)N1CCCC1 [Example 123, 1-Pyrrolidin-1-yl-2-[6-(3,4,5-trifluorophenyl)pyrrolo[3,2-b]pyridin-1-yl]ethanone] | 20 nM |  |
| O=C(Cn1ccc2ncc(-c3cc(F)c(F)c(F)c3)cc21)N1CC(F)(F)C1 [Example 124, 1-(3,3-Difluoroazetidin-1-yl)-2-[6-(3,4,5-trifluorophenyl)pyrrolo[3,2-b]pyridin-1-yl]ethanone] | 31.6 nM |  |
| O=C(Cn1ccc2ncc(-c3cc(F)cc(F)c3)cc21)N1CCOCC1 [Example 125, 2-[6-(3,5-Difluorophenyl)pyrrolo[3,2-b]pyridin-1-yl]-1-morpholino-ethanone] | 31.6 nM |  |
| O=C(Cn1ccc2ncc(-c3ccc(F)c(F)c3F)cc21)N1CCOCC1 [Example 126, 1-Morpholino-2-[6-(2,3,4-trifluorophenyl)pyrrolo[3,2-b]pyridin-1-yl]ethanone] | 100 nM |  |
| O=C(Cn1ccc2ncc(-c3cc(F)c(F)c(F)c3)cc21)N1CCOCC1 [Example 127, 1-Morpholino-2-[6-(3,4,5-trifluorophenyl)pyrrolo[3,2-b]pyridin-1-yl]ethanone] | 158 nM |  |
| O=C(Cn1ccc2ncc(-c3ccc(F)c(F)c3)cc21)N1CC(F)C1 [Example 128, 2-[6-(3,4-Difluorophenyl)pyrrolo[3,2-b]pyridin-1-yl]-1-(3-fluoroazetidin-1-yl)ethanone] | 63.1 nM |  |
| O=C(Cn1ccc2ncc(-c3cc(F)cc(F)c3)cc21)N1CC(F)C1 [Example 129, 2-[6-(3,5-Difluorophenyl)pyrrolo[3,2-b]pyridin-1-yl]-1-(3-fluoroazetidin-1-yl)ethanone] | 25.1 nM |  |
| Cc1csc(-c2cnc3ccn(Cc4cccnn4)c3c2)c1 [Example 130, 6-(4-Methyl-2-thienyl)-1-(pyridazin-3-ylmethyl)pyrrolo[3,2-b]pyridine] |  | 7.7 |
